IC90 data for 24 molecules are collected here from patent US20230203043A1, “NOVEL IMIDAZOPYRAZINE DERIVATIVES” (Hoffmann-La Roche Inc., priority 2020, published 2023).

Where a name gives a salt, the structure may show the parent alone.

For the first experiment, the system named is Acinetobacter baumannii ATCC17961. Briefly: Antimicrobial susceptibility testing: 90% growth inhibitory concentration (IC90) determination in Iso-Sensitest broth, OD600 growth. The experiment is classed as cell-based. To be noted: Acinetobacter baumannii, ATCC17961, 16 h, read-out: A. baumannii ATCC 17961 IC90 (uM), strain ATCC 17961, OD600 growth over 16 h. The essentials: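 OD600 read every 20 min for 16 h at 35±2° C; inhibition taken in log phase to derive IC90. Twofold, 10-point dilutions (e.g. 50–0.097 μM final), inoculum ~5×10^(5) CFU/ml.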
Usually IC90 stands for the point of the concentration-response curve where the effect stands at 90%. On to `CCc1cc(Nc2nccn3c(-c4c[nH]nc4C(F)(F)F)cnc23)ccc1C(=O)NCCNC(=O)[C@H](C)N` [Example 718, (S)-N-(2-(2-aminopropanamido)ethyl)-2-ethyl-4-((3-(3-(trifluoromethyl)-1H-pyrazol-4-yl)imidazo [1,2-a]pyrazin-8-yl)amino)benzamide formate], for which the IC90 came to 0.435 µM.
`CCc1cc(Nc2nccn3c(-c4cn(CC#N)nc4C(F)(F)F)cnc23)ccc1C(=O)NCCCNC(=O)[C@@H](C)N` [Example 626, (R)-N-(3-(2-aminopropanamido)propyl)-4-((3-(1-(cyanomethyl)-3-(trifluoromethyl)-1H-pyrazol-4-yl)imidazo[1,2-a]pyrazin-8-yl)amino)-2-ethylbenzamide formate]: the IC90 stood at 0.233 µM.
Same read-out and setting: next, `O=C(c1ccc(Nc2nccn3c(-c4c[nH]nc4C(F)(F)F)cnc23)cc1Cl)N1CCN(C(=O)[C@H]2C[C@H](O)CN2)CC1` [Example 452, [2-chloro-4-[[3-[3-(trifluoromethyl)-1H-pyrazol-4-yl]imidazo[1,2-a]pyrazin-8-yl]amino]phenyl]-[4-[(2R,4S)-4-hydroxypyrrolidine-2-carbonyl]piperazin-1-yl]methanone formate]: 0.401 µM; `CCc1cc(Nc2nccn3c(-c4cn(C5CC(F)(F)C5)nc4C(F)(F)F)cnc23)ccc1C(=O)NCCOCCCN` [Example 670, N-(2-(3-aminopropoxy)ethyl)-4-((3-(1-(3,3-difluorocyclobutyl)-3-(trifluoromethyl)-1H-pyrazol-4-yl)imidazo[1,2-a]pyrazin-8-yl)amino)-2-ethylbenzamide formate]: 0.304 µM.
As for `N#CCn1cc(-c2cnc3c(Nc4ccc(C(=O)N5CCN(C(=O)[C@H]6C[C@H](N)C6)CC5)c(Cl)c4)nccn23)c(C(F)(F)F)n1` [Example 12, 2-[4-[8-[4-[4-(3-aminocyclobutanecarbonyl)piperazine-1-carbonyl]-3-chloroanilino]imidazo[1,2-a]pyrazin-3-yl]-3-(trifluoromethyl)pyrazol-1-yl]acetonitrile formate], the IC90 came out at 0.176 µM.
With `N#CCn1cc(-c2cnc3c(Nc4ccc(C(=O)N5CCN(C(=O)NCC6(O)CNC6)CC5)c(Cl)c4)nccn23)c(C(F)(F)F)n1` [Example 579, 4-(2-chloro-4-((3-(1-(cyanomethyl)-3-(trifluoromethyl)-1H-pyrazol-4-yl)imidazo[1,2-a]pyrazin-8-yl)amino)benzoyl)-N-((3-hydroxyazetidin-3-yl)methyl)piperazine-1-carboxamide formate], the IC90 was 0.538 µM.
Turning to `CCc1cc(Nc2nccn3c(-c4cn(CC(F)(F)F)nc4C(F)(F)F)cnc23)ccc1C(=O)NCCOCCN` [Example 276, N-[2-(2-aminoethoxy)ethyl]-2-ethyl-4-[[3-[1-(2,2,2-trifluoroethyl)-3-(trifluoromethyl)pyrazol-4-yl]imidazo[1,2-a]pyrazin-8-yl]amino]benzamide formate], the IC90 was determined as 0.178 µM.

The experiment is the same for the next values; noted with them: Acinetobacter baumannii, ATCC17961, 16 h, strain ATCC 17961, OD600 growth over 16 h, read-out: A. baumannii ATCC 17961 IC90.
On to `O=C(c1ccc(Nc2nccn3c(-c4cn(C(F)F)nc4C(F)(F)F)cnc23)cc1Cl)N1CCN(C(=O)[C@@H]2CCCN2)CC1` [Example 104, [2-chloro-4-[[3-[1-(difluoromethyl)-3-(trifluoromethyl)pyrazol-4-yl]imidazo[1,2-a]pyrazin-8-yl]amino]phenyl]-[4-[(2S)-pyrrolidine-2-carbonyl]piperazin-1-yl]methanone], for which the IC90 stood at 0.227 µM.
Regarding `CCOCCCNC(=O)c1ccc(Nc2nccn3c(-c4c[nH]nc4C(F)(F)F)cnc23)cc1CC` [Example 223, N-(3-ethoxypropyl)-2-ethyl-4-[[3-[3-(trifluoromethyl)-1H-pyrazol-4-yl]imidazo[1,2-a]pyrazin-8-yl]amino]benzamide], the IC90 is 1.12 µM.
For `NCCC(=O)NCCNC(=O)c1ccc(Nc2nccn3c(-c4c[nH]nc4C(F)(F)F)cnc23)cc1Cl` [Example 299, N-[2-(3-aminopropanoylamino)ethyl]-2-chloro-4-[[3-[3-(trifluoromethyl)-1H-pyrazol-4-yl]imidazo[1,2-a]pyrazin-8-yl]amino]benzamide], the IC90 amounted to 0.699 µM.
On to `CCc1cc(Nc2nccn3c(-c4cn(CC#N)nc4C(F)(F)F)cnc23)ccc1C(=O)NCCNC(=O)[C@@H]1C[C@@H](O)CN1` [Example 637, (2S,4R)-N-(2-(4-((3-(1-(cyanomethyl)-3-(trifluoromethyl)-1H-pyrazol-4-yl)imidazo[1,2-a]pyrazin-8-yl)amino)-2-ethylbenzamido)ethyl)-4-hydroxypyrrolidine-2-carboxamide], for which the IC90 was found to be 0.226 µM.
On to `CCNC(=O)c1ccc(Nc2nccn3c(-c4cn(CC#N)nc4C(F)(F)F)cnc23)cc1Cl` [Example 230, 2-chloro-4-[[3-[1-(cyanomethyl)-3-(trifluoromethyl)pyrazol-4-yl]imidazo[1,2-a]pyrazin-8-yl]amino]-N-ethylbenzamide], for which the IC90 came out at 0.091 µM.
Still for that read-out and setting: under `CCc1cc(Nc2nccn3c(-c4cn(CC(N)=O)nc4C(F)(F)F)cnc23)ccc1C(=O)NC` [Example 339, 4-[[3-[1-(2-amino-2-oxoethyl)-3-(trifluoromethyl)pyrazol-4-yl]imidazo[1,2-a]pyrazin-8-yl]amino]-2-ethyl-N-methylbenzamide] stands 2.49 µM; under `CCc1cc(Nc2nccn3c(-c4cn(CC(C)CO)nc4C(F)(F)F)cnc23)ccc1C(=O)NCCOCCN` (stereo not drawn) [Example 267, N-[2-(2-aminoethoxy)ethyl]-2-ethyl-4-[[3-[1-(3-hydroxy-2-methylpropyl)-3-(trifluoromethyl)pyrazol-4-yl]imidazo[1,2-a]pyrazin-8-yl]amino]benzamide], 0.225 µM.
On to `NCCNC(=O)CNCCNC(=O)c1ccc(Nc2nccn3c(-c4cn(CC(F)F)nc4C(F)(F)F)cnc23)cc1Cl` [Example 820, N-(2-((2-((2-aminoethyl)amino)-2-oxoethyl)amino)ethyl)-2-chloro-4-(3-(1-(2,2-difluoroethyl)-3-(trifluoromethyl)-1H-pyrazol-4-yl)imidazo[1,2-a]pyrazin-8-yl)amino) benzamide formate], for which the 90% effect concentration (IC90) came out at 0.15 µM.
As to `N#CCn1cc(-c2cnc3c(Nc4ccc(C(=O)NCC(=O)N5CC[C@H](N)C5)c(Cl)c4)nccn23)c(C(F)(F)F)n1` [Example 656, N-[2-[(3S)-3-aminopyrrolidin-1-yl]-2-oxo-ethyl]-2-chloro-4-[[3-[1-(cyanomethyl)-3-(trifluoromethyl)pyrazol-4-yl]imidazo[1,2-a]pyrazin-8-yl]amino] benzamide formate], the IC90 came out at 0.266 µM.
Take `C#CCNC(=O)c1c(C)cc(Nc2nccn3c(-c4c[nH]nc4C(F)(F)F)cnc23)cc1F` [Example 43, 2-fluoro-6-methyl-N-prop-2-ynyl-4-[[3-[3-(trifluoromethyl)-1H-pyrazol-4-yl]imidazo[1,2-a]pyrazin-8-yl]amino]benzamide]: the IC90 was 1.95 µM.
As to `NC12CC(NC(=O)c3ccc(Nc4nccn5c(-c6cn(CC(F)F)nc6C(F)(F)F)cnc45)cc3Cl)(C1)C2` [Example 87, N-(3-amino-1-bicyclo[1.1.1]pentanyl)-2-chloro-4-[[3-[1-(2,2-difluoroethyl)-3-(trifluoromethyl)pyrazol-4-yl]imidazo[1,2-a]pyrazin-8-yl]amino]benzamide], the 90% effect concentration (IC90) was 0.359 µM.
Regarding `CCc1cc(Nc2nccn3c(-c4cn(CC(F)F)nc4C(F)(F)F)cnc23)ccc1C(=O)NCCNC(=O)[C@H]1C[C@@H](N)C1` [Example 624, cis-N-(2-((1s,3s)-3-aminocyclobutane-1-carboxamido)ethyl)-4-((3-(1-(2,2-difluoroethyl)-3-(trifluoromethyl)-1H-pyrazol-4-yl)imidazo[1,2-a]pyrazin-8-yl)amino)-2-ethylbenzamide formate], the 90% effect concentration (IC90) is 0.19 µM.
Take `N#CCn1cc(-c2cnc3c(Nc4ccc(C(=O)NCCNCC(=O)NCCN)c(Cl)c4)nccn23)c(C(F)(F)F)n1` [Example 815, N-(2-((2-((2-aminoethyl)amino)-2-oxoethyl)amino)ethyl)-2-chloro-4-((3-(1-(cyanomethyl)-3-(trifluoromethyl)-1H-pyrazol-4-yl)imidazo[1,2-α]pyrazin-8-yl)amino)benzamide formate]: the IC90 was found to be 0.18 µM.
The same measure, in the same setting: next, `Cc1cc(Nc2nccn3c(-c4cn(CC#N)nc4C(F)(F)F)cnc23)ccc1S(C)(=O)=NCCCN` (stereo not drawn) [Example 597, 2-[4-[8-[4-[N-(3-aminopropyl)-S-methyl-sulfonimidoyl]-3-methyl-anilino]imidazo[1,2-a]pyrazin-3-yl]-3-(trifluoromethyl)pyrazol-1-yl]acetonitrile]: 0.179 µM; `Cc1cc(Nc2nccn3c(-c4cn(CC(F)F)nc4C(F)(F)F)cnc23)cc(F)c1C(=O)N1CCN(C(=O)[C@H](C)N)CC1` [Example 664, (S)-2-amino-1-(4-(4-((3-(1-(2,2-difluoroethyl)-3-(trifluoromethyl)-1H-pyrazol-4-yl)imidazo [1,2-a]pyrazin-8-yl)amino)-2-fluoro-6-methylbenzoyl)piperazin-1-yl)propan-1-one]: 0.286 µM.
With `C#CCn1cc(-c2cnc3c(Nc4ccc(C(=O)NCCOCCN)c(Cl)c4)nccn23)c(C(F)(F)F)n1` [Example 249, N-[2-(2-aminoethoxy)ethyl]-2-chloro-4-[[3-[1-prop-2-ynyl-3-(trifluoromethyl)pyrazol-4-yl]imidazo[1,2-a]pyrazin-8-yl]amino]benzamide], the IC90 came out at 0.047 µM.

Staying with this experiment, now noted: strain ATCC 17961, OD600 growth over 16 h, read-out: A. baumannii ATCC 17961 IC90.
With `CCc1cc(Nc2nccn3c(-c4c[nH]nc4C(F)(F)F)cnc23)ccc1C(=O)NCCNC(=O)[C@H]1C[C@@H](N)C1` [Example 804, N-(2-((1s,3s)-3-aminocyclobutane-1-carboxamido)ethyl)-2-ethyl-4-((3-(3-(trifluoromethyl)-1H-pyrazol-4-yl)imidazo[1,2-a]pyrazin-8-yl)amino)benzamide formate], the IC90 came out at 0.511 µM.
